Results published in PMC6300691, “Enhancement of Heat Stability and Kinetic Parameters of the Maize Endosperm ADP-Glucose Pyrophosphorylase by Mutagenesis of Amino Acids in the Small Subunit With High B Factors” (Frontiers in Plant Science, 2018).
Substitutions are numbered along the chain they refer to.

Columns and labels:
[1] = biological target: T1, E123G, R331K, K402R, L404H (Zea mays, UniProt P55241+Q947C0, E123G/R331K/K402R/L404H); experiment: Activation constant from initial rates with varied 3-PGA (0-1 mM) at 2 mM ATP and 2 mM G-1-P, pH 7.4, 15 mM MgCl2, fitted to V = Vmin + Vmax*X/(Ka + X).; type: biochemical
T1 construct: BT2 quadruple variant with wild type SH2, E. coli, purified
Text: (§1) All reactions were developed as above.

R331P = biological target: T2, R331P (Zea mays, UniProt P55241+Q947C0, R331P); experiment: as above; type: biochemical
T2 construct: BT2 variant with wild type SH2, E. coli, purified
Text: as §1

SH2-ISM = biological target: T3, SH2-ISM (Zea mays, UniProt P55241+Q947C0, Q96G/D161G/A443R); experiment: as above; type: biochemical
T3 construct: SH2-ISM with wild type BT2 (SH2-ISM/BT2-WT), E. coli, purified
T3 sequence (Q947C0 1-475): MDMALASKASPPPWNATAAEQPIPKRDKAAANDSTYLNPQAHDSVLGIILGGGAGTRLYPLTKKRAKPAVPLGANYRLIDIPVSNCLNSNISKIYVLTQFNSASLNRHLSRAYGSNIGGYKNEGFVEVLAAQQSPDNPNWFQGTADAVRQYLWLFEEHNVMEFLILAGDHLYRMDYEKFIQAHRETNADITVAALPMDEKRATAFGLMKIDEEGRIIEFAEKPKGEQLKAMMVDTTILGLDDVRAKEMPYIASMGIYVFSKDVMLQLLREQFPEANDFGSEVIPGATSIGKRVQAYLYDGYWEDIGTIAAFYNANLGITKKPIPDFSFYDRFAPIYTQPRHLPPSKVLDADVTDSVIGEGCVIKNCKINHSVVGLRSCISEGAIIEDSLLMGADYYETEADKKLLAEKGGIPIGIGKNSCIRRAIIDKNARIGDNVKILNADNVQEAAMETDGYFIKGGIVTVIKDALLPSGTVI
T3 sequence (P55241 46-516 Q96G/D161G/A443R): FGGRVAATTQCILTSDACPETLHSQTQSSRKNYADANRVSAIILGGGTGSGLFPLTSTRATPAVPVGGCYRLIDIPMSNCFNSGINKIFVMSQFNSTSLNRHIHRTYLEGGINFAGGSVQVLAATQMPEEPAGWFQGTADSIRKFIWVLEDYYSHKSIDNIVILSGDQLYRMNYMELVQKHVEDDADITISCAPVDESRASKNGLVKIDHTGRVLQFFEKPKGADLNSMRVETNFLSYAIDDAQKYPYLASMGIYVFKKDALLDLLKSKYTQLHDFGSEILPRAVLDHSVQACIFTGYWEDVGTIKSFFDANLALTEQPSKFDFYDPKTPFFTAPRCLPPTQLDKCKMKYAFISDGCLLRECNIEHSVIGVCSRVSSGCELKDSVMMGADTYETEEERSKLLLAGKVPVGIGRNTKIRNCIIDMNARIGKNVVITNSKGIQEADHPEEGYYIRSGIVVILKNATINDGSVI
Text: as §1

R331K = biological target: T4, R331K (Zea mays, UniProt P55241+Q947C0, R331K); experiment: as above; type: biochemical
T4 construct: BT2 variant with wild type SH2, E. coli, purified
Text: as §1

K403L = biological target: T5, K403L (Zea mays, UniProt P55241+Q947C0, K403L); experiment: as above; type: biochemical
T5 construct: BT2 variant with wild type SH2, E. coli, purified
Text: as §1

E123V = biological target: T6, E123V (Zea mays, UniProt P55241+Q947C0, E123V); experiment: as above; type: biochemical
T6 construct: BT2 variant with wild type SH2, E. coli, purified
Text: as §1

[2] = biological target: T7, E123G, R331K, K402R (BT2-BF) (Zea mays, UniProt P55241+Q947C0, E123G/R331K/K402R); experiment: as above; type: biochemical
T7 construct: BT2-BF with wild type SH2 (SH2-WT/BT2-BF), E. coli, purified
T7 sequence (Q947C0 1-475 E123G/R331K/K402R): T3 sequence (Q947C0 1-475) with E123G, R331K, K402R
T7 sequence (P55241 46-516): T3 sequence (P55241 46-516 Q96G/D161G/A443R) with G51Q, G116D, R398A
Text: as §1

E123G = biological target: T8, E123G (Zea mays, UniProt P55241+Q947C0, E123G); experiment: as above; type: biochemical
T8 construct: BT2 variant with wild type SH2, E. coli, purified
Text: as §1

L404E = biological target: T9, L404E (Zea mays, UniProt P55241+Q947C0, L404E); experiment: as above; type: biochemical
T9 construct: BT2 variant with wild type SH2, E. coli, purified
Text: as §1

D242H = biological target: T10, D242H (Zea mays, UniProt P55241+Q947C0, D242H); experiment: as above; type: biochemical
T10 construct: BT2 variant with wild type SH2, E. coli, purified
Text: as §1

wt (SH2-WT/BT2-WT) = wt (SH2-WT/BT2-WT) (Zea mays, UniProt P55241+Q947C0)
Method: All reactions were developed as above. The activation constant was fitted to the following equation, V = Vmin + Vmax^∗X/(Ka + X), since several enzymes had appreciable activity in the absence of activator. Here, Vmin is the velocity in the absence of activator and Vmax is the change in activity from Vmin to the total velocity, X is the activator concentration, Ka is the activation constant. All linear regressions were carried out using the software program Prism (GraphPad, San Diego, CA, United States).

T2 sequence (Q947C0 1-475 R331P): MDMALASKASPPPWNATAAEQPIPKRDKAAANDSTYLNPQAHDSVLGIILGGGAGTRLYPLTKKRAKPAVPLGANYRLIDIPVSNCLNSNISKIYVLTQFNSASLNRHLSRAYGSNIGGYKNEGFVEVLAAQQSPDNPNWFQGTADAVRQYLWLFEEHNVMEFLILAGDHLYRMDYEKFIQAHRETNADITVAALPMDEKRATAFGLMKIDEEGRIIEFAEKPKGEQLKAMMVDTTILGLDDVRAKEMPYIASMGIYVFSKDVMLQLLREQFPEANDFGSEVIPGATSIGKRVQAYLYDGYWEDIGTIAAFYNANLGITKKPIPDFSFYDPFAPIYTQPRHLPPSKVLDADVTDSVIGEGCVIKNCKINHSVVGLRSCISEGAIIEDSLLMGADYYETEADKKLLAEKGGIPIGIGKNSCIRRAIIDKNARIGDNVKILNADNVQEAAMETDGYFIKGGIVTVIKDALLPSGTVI
T2 sequence (P55241 46-516): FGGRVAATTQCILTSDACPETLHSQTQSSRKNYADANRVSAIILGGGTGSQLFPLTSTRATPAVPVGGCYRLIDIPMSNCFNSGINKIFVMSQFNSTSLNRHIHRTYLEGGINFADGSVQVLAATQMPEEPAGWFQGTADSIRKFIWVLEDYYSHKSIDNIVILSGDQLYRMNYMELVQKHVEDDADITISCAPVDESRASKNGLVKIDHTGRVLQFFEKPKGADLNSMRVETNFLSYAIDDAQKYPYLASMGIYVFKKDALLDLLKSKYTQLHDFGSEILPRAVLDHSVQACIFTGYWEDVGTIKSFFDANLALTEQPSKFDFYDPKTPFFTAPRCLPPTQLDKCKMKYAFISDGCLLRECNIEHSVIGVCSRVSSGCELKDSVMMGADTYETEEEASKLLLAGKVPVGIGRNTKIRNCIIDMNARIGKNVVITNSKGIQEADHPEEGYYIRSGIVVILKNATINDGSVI
T6 sequence (Q947C0 entry or part of it E123V): as the sequence (Q947C0 1-475 R331P) above, with E123V, P331R counted along it
T10 sequence (Q947C0 1-475 D242H): as the sequence (Q947C0 1-475 R331P) above, with D242H, P331R counted along it
T9 sequence (Q947C0 1-475 L404E): as the sequence (Q947C0 1-475 R331P) above, with P331R, L404E counted along it
T4 sequence (Q947C0 1-475 R331K): as the sequence (Q947C0 1-475 R331P) above, with P331K counted along it
T1 sequence (Q947C0 1-475 E123G/R331K/K402R/L404H): as the sequence (Q947C0 1-475 R331P) above, with E123G, P331K, K402R, L404H counted along it
T8 sequence (Q947C0 entry or part of it E123G): as the sequence (Q947C0 1-475 R331P) above, with E123G, P331R counted along it
T5 sequence (Q947C0 1-475 K403L): as the sequence (Q947C0 1-475 R331P) above, with P331R, K403L counted along it

O=C(O)[C@H](O)COP(=O)(O)O [3-PGA, 3-phosphoglycerate (3-phosphoglyceric acid)]
3-PGA Ka (activation constant) [1]: 0.11 ± 0.017 + | 3-PGA Ka (activation constant) (R331P): 0.094 ± 0.013 | 3-PGA Ka (activation constant) (SH2-ISM): 0.056 ± 0.008 | 3-PGA Ka (activation constant) (R331K): 0.07 ± 0.008 | 3-PGA Ka (activation constant) (K403L): 0.41 ± 0.049 | 3-PGA Ka (activation constant) (E123V): 0.10 ± 0.036 | 3-PGA Ka (activation constant) [2]: 0.060 ± 0.0097 | 3-PGA Ka (activation constant) (E123G): 0.090 ± 0.023 | 3-PGA Ka (activation constant) (L404E): 0.15 ± 0.014 | 3-PGA Ka (activation constant) (D242H): 0.077 ± 0.0077 | 3-PGA Ka (activation constant) (wt (SH2-WT/BT2-WT)): 0.26 ± 0.061
